Molecular target: T1, hBK1 receptor (Homo sapiens, UniProt P46663)
T1 construct: expressed in transfected cells; host or cells: CHO cells (membrane homogenate)
T1 sequence (P46663 1-353): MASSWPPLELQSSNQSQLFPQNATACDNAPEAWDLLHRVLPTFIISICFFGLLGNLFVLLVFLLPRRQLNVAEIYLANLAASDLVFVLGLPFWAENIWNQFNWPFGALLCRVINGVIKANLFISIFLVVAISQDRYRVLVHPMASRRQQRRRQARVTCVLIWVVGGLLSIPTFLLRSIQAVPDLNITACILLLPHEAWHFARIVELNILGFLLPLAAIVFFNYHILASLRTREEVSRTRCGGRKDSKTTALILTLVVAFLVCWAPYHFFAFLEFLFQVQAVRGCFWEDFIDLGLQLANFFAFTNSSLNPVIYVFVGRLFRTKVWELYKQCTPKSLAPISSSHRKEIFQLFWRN
Experiment: hBK1 receptor binding
Settings: membranes of CHO cells expressing the hBK1 receptor; radioligand 0.5 to 1.0 nM kallidin (DesArg10, Leu9), [3,4-prolyl-3,43H(N)]; 60 minutes, room temperature
Experimental: Description of the Method of hBK1 Receptor Binding
CHO cells expressing the hBK1 receptor are cultivated in Dulbecco's modified medium. The medium from confluent cultures is removed and the cells are washed with PBS buffer, scraped off and isolated by centrifugation. The cells are then homogenized in suspension and the homogenate is centrifuged and resuspended. The protein content is determined and the membrane preparation obtained in this manner is then frozen at −80° C.
After thawing, 200 μl of the homogenate (50 to 100 μg of proteins/assay) are incubated at room temperature with 0.5 to 1.0 nM of kallidin (DesArg10, Leu9), [3,4-prolyl-3,43H(N)] and increasing concentrations of the test substance in a total volume of 250 μl for 60 minutes. The incubation is terminated by rapid filtration through GF/B glass fibre filters which had been pretreated with polyethyleneimine (0.3%). The protein-bound radioactivity is measured in a TopCount NXT. Non-specific binding is defined as radioactivity bound in the presence of 1.0 μM of kallidin (DesArg10, Leu9), [3,4-prolyl-3,43H(N)]. The concentration/binding curve is analysed using a computer-assisted nonlinear curve fitting. The K which corresponds to the test substance is determined using the data obtained in this manner. […]

Work on `COc1cc(C)c(S(=O)(=O)N(C)CCOCC(=O)N(C)[C@@H]2CCN(C3CCN(C)CC3)C2)c(C)c1` [(394)] yielded a Ki of 1.04 nM.
